Laboratory results taken from publication PMC9569420 (Communications Biology, 2022).

Columns and labels:
[1] = target: T1, DDR1 (Homo sapiens, UniProt Q08345); experiment: HotSpot kinase assay; format: biochemical; settings: read-out: % Enzyme Activity (relative to DMSO controls)
T1 construct: purchased Reaction Biology Corporation

[2] = target: T2, IRAK4 (Homo sapiens, UniProt Q9NWZ3); experiment: HotSpot kinase assay; format: biochemical; settings: read-out: % Enzyme Activity (relative to DMSO controls)
T2 construct: purchased Reaction Biology Corporation

[3] = tested on: HaCat cells; experiment: apoptosis assay (activated caspases, SYTOX Green); format: cell-based, human; settings: 10µM
Description: Cell proliferation and viability were determined using the Cell Titer 96 Aqueous One Solution and optical density was determined using a SpectraMax M5e Molecular Devices multidetection microplate reader. […] The cells were then fixed and stained for activated caspases (red) and SYTOX Green (for integrity of plasma membrane) by Image-iT^TM LIVE red Poly Caspase Detection kit. Nuclei were stained with Hoechst. Images were acquired by laser confocal microscope ZeissLive/DuoScan equipped with oil immersion objectives 63 × 1.1 and captured in an optical slice of 0.37 µm with appropriate filters. Alternatively, immunoblots were prepared and probed with antibodies to cleaved PARP-1 or cleaved caspase 8.

[4] = target: T3, MLK4 (Homo sapiens, UniProt Q5TCX8); experiment: HotSpot kinase assay; format: biochemical; settings: read-out: % Enzyme Activity (relative to DMSO controls)
T3 construct: purchased Reaction Biology Corporation

[5] = target: T4, MLK2/MAP3K10 (Homo sapiens, UniProt Q02779); experiment: HotSpot kinase assay; format: biochemical; settings: read-out: % Enzyme Activity (relative to DMSO controls)
T4 construct: purchased Reaction Biology Corporation

[6] = target: T5, MLK1/MAP3K9 (Homo sapiens, UniProt P80192); experiment: HotSpot kinase assay; format: biochemical; settings: read-out: % Enzyme Activity (relative to DMSO controls)
T5 construct: purchased Reaction Biology Corporation

[7] = in vitro; settings: dog, MDCK-MDR1
[8] = target: T6, CK1g1 (Homo sapiens, UniProt Q9HCP0); experiment: HotSpot kinase assay; format: biochemical; settings: read-out: % Enzyme Activity (relative to DMSO controls)
T6 construct: purchased Reaction Biology Corporation

[9] = target: T7, NEK3 (Homo sapiens, UniProt P51956); experiment: HotSpot kinase assay; format: biochemical; settings: 10µM; read-out: % Enzyme Activity (relative to DMSO controls)
T7 construct: purchased Reaction Biology Corporation
T7 sequence (P51956 whole entry): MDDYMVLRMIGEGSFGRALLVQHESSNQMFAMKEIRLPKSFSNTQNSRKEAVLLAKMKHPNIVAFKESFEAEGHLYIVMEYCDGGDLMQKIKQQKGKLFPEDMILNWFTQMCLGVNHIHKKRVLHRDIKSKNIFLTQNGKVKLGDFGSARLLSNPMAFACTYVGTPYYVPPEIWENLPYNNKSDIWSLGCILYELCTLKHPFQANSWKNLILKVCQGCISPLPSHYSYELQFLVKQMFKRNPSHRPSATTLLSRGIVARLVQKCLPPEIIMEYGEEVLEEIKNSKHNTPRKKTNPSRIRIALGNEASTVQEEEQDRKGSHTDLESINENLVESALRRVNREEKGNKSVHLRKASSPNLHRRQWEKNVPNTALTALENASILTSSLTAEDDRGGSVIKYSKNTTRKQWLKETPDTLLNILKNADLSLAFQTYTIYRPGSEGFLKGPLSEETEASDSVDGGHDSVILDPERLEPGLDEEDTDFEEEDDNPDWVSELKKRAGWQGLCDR
Description: (§1) Kinase activity were performed by Reaction Biology Corporation using the “HotSpot” assay platform modified from the published procedure.

[10] = target: T8, PDK3/PDHK3 (Homo sapiens, UniProt Q15120); experiment: HotSpot kinase assay; format: biochemical; settings: 10µM; read-out: % Enzyme Activity (relative to DMSO controls)
T8 construct: purchased Reaction Biology Corporation
T8 sequence (Q15120 whole entry): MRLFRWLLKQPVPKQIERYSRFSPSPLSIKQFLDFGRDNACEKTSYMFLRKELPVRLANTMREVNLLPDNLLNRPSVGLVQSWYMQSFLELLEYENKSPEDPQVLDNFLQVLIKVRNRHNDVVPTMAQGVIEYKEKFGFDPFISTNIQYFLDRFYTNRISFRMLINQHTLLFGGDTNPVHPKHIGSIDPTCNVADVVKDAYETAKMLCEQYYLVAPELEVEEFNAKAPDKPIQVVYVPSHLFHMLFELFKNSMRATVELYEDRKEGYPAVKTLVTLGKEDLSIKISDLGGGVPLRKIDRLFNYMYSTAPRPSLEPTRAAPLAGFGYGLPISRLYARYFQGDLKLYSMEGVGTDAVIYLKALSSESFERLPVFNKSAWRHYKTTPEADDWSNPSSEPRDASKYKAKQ
Description: as §1

[11] = target: T9, VRK1 (Homo sapiens, UniProt Q99986); experiment: HotSpot kinase assay; format: biochemical; settings: 10µM; read-out: % Enzyme Activity (relative to DMSO controls)
T9 construct: purchased Reaction Biology Corporation
Description: as §1

[12] = target: T10, TAOK2/TAO1 (Homo sapiens, UniProt Q9UL54); experiment: HotSpot kinase assay; format: biochemical; settings: read-out: % Enzyme Activity (relative to DMSO controls)
T10 construct: purchased Reaction Biology Corporation
T10 sequence (Q9UL54 whole entry): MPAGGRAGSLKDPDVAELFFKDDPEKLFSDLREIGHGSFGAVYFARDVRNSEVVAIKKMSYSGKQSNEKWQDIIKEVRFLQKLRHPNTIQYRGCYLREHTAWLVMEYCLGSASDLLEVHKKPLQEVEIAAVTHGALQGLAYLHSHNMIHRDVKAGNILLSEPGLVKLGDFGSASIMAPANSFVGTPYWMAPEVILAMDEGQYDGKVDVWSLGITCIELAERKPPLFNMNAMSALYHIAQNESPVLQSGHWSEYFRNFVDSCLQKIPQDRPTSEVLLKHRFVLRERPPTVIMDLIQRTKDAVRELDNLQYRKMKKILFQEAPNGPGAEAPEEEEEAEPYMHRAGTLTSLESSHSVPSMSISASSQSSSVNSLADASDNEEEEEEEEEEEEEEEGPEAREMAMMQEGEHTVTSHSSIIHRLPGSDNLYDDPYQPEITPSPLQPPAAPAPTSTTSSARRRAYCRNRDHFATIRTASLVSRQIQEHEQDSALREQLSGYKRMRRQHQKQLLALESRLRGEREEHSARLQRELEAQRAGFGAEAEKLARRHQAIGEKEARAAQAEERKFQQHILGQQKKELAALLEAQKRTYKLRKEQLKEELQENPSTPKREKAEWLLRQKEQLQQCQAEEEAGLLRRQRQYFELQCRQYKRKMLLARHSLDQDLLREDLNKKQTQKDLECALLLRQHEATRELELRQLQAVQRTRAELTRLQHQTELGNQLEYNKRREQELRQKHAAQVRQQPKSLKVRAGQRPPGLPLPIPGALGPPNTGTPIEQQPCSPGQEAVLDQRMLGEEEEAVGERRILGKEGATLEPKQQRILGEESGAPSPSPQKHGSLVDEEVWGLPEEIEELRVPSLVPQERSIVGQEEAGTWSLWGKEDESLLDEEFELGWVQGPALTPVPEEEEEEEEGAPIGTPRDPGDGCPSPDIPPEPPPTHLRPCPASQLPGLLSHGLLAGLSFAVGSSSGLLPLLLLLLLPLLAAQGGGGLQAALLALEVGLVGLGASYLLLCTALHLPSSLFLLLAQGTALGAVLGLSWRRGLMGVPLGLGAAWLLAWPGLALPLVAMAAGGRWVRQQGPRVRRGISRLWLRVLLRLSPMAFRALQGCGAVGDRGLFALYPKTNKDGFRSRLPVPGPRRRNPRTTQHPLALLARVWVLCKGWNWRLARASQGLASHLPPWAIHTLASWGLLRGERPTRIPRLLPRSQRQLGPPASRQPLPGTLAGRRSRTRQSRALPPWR

[13] = target: T11, MST3/STK24 (Homo sapiens, UniProt Q9Y6E0); experiment: HotSpot kinase assay; format: biochemical; settings: read-out: % Enzyme Activity (relative to DMSO controls)
T11 construct: purchased Reaction Biology Corporation

[14] = target: T12, MARK1 (Homo sapiens, UniProt Q9P0L2); experiment: HotSpot kinase assay; format: biochemical; settings: read-out: % Enzyme Activity (relative to DMSO controls)
T12 construct: purchased Reaction Biology Corporation

[15] = target: T13, WNK2 (Homo sapiens, UniProt Q9Y3S1); experiment: HotSpot kinase assay; format: biochemical; settings: read-out: % Enzyme Activity (relative to DMSO controls)
T13 construct: purchased Reaction Biology Corporation

[16] = target: T14, CDK6/cyclin D3 (Homo sapiens, UniProt Q00534); experiment: HotSpot kinase assay; format: biochemical; settings: read-out: % Enzyme Activity (relative to DMSO controls)
T14 construct: purchased Reaction Biology Corporation

[17] = tested on: VSV-S; format: cell-based, VSV pseudotyped with SARS-CoV-2 spike
[18] = target: T15, MRCKb/CDC42BPB (Homo sapiens, UniProt Q9Y5S2); experiment: HotSpot kinase assay; format: biochemical; settings: read-out: % Enzyme Activity (relative to DMSO controls)
T15 construct: purchased Reaction Biology Corporation

[19] = target: T16, GRK5 (Homo sapiens, UniProt P34947); experiment: HotSpot kinase assay; format: biochemical; settings: read-out: % Enzyme Activity (relative to DMSO controls)
T16 construct: purchased Reaction Biology Corporation
T16 sequence (P34947 whole entry): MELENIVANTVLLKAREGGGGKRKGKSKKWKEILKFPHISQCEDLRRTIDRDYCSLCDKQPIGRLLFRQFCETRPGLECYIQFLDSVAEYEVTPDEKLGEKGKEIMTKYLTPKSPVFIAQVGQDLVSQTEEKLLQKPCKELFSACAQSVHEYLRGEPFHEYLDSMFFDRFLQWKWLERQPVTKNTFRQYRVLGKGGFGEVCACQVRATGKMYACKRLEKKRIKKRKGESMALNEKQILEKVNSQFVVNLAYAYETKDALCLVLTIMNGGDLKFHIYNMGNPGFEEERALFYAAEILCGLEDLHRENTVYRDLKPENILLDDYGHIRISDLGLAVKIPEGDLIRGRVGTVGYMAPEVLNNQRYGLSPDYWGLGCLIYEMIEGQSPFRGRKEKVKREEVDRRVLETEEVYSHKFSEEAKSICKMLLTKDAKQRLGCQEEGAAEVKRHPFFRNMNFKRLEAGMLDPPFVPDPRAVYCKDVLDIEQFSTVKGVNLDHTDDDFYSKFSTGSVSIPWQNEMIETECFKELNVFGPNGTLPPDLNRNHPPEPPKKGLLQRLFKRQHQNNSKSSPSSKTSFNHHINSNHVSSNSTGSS

[20] = target: T17, CAMK2d (Homo sapiens, UniProt Q13557); experiment: HotSpot kinase assay; format: biochemical; settings: read-out: % Enzyme Activity (relative to DMSO controls)
T17 construct: purchased Reaction Biology Corporation

[21] = target: T18, BMPR2 (Homo sapiens, UniProt Q13873); experiment: HotSpot kinase assay; format: biochemical; settings: read-out: % Enzyme Activity (relative to DMSO controls)
T18 construct: purchased Reaction Biology Corporation

[22] = target: T19, CDK18/cyclin Y (PCTK3) (Homo sapiens, UniProt Q07002); experiment: HotSpot kinase assay; format: biochemical; settings: read-out: % Enzyme Activity (relative to DMSO controls)
T19 construct: purchased Reaction Biology Corporation
T19 sequence (Q07002 whole entry): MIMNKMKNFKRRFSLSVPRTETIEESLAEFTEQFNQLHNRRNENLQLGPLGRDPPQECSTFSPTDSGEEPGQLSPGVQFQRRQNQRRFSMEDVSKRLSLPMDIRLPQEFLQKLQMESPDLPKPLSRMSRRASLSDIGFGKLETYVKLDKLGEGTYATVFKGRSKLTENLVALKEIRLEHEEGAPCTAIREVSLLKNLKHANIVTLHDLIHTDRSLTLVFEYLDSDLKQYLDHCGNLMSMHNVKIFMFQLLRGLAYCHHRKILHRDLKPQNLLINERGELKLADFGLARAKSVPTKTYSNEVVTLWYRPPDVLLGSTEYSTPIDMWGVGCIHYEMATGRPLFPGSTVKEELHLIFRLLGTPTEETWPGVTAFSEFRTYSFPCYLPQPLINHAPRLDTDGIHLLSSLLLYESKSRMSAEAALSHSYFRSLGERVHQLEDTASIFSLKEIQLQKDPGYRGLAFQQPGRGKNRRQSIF
T19 sequence (Q8ND76 whole entry partner): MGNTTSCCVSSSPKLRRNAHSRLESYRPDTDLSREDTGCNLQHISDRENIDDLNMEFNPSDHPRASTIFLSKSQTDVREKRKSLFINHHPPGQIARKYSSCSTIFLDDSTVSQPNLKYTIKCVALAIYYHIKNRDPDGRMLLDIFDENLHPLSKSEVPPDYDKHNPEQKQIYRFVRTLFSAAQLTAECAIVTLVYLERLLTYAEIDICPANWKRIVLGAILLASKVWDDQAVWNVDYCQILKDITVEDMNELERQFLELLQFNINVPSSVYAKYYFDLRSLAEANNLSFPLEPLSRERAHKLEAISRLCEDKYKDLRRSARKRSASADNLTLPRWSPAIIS

[23] = target: T20, SIK1 (Homo sapiens, UniProt P57059); experiment: HotSpot kinase assay; format: biochemical; settings: read-out: % Enzyme Activity (relative to DMSO controls)
T20 construct: purchased Reaction Biology Corporation

[24] = target: T21, CTK/MATK (Homo sapiens, UniProt P42679); experiment: HotSpot kinase assay; format: biochemical; settings: read-out: % Enzyme Activity (relative to DMSO controls)
T21 construct: purchased Reaction Biology Corporation

[25] = target: T22, CK2a2 (Homo sapiens, UniProt P19784); experiment: HotSpot kinase assay; format: biochemical; settings: read-out: % Enzyme Activity (relative to DMSO controls)
T22 construct: purchased Reaction Biology Corporation

[26] = target: T23, CAMK1g (Homo sapiens, UniProt Q96NX5); experiment: HotSpot kinase assay; format: biochemical; settings: read-out: % Enzyme Activity (relative to DMSO controls)
T23 construct: purchased Reaction Biology Corporation

[27] = target: T24, MYO3b (Homo sapiens, UniProt Q8WXR4); experiment: HotSpot kinase assay; format: biochemical; settings: read-out: % Enzyme Activity (relative to DMSO controls)
T24 construct: purchased Reaction Biology Corporation

[28] = target: T25, NEK4 (Homo sapiens, UniProt P51957); experiment: HotSpot kinase assay; format: biochemical; settings: read-out: % Enzyme Activity (relative to DMSO controls)
T25 construct: purchased Reaction Biology Corporation

[29] = target: T26, MEKK3 (Homo sapiens, UniProt Q99759); experiment: HotSpot kinase assay; format: biochemical; settings: read-out: % Enzyme Activity (relative to DMSO controls)
T26 construct: purchased Reaction Biology Corporation

[30] = target: T27, BMX/ETK (Homo sapiens, UniProt P51813); experiment: HotSpot kinase assay; format: biochemical; settings: read-out: % Enzyme Activity (relative to DMSO controls)
T27 construct: purchased Reaction Biology Corporation

[31] = target: T28, PKG1b (Homo sapiens, UniProt Q13976); experiment: HotSpot kinase assay; format: biochemical; settings: read-out: % Enzyme Activity (relative to DMSO controls)
T28 construct: purchased Reaction Biology Corporation

[32] = target: T29, TEC (Homo sapiens, UniProt P42680); experiment: HotSpot kinase assay; format: biochemical; settings: read-out: % Enzyme Activity (relative to DMSO controls)
T29 construct: purchased Reaction Biology Corporation
T29 sequence (P42680 whole entry): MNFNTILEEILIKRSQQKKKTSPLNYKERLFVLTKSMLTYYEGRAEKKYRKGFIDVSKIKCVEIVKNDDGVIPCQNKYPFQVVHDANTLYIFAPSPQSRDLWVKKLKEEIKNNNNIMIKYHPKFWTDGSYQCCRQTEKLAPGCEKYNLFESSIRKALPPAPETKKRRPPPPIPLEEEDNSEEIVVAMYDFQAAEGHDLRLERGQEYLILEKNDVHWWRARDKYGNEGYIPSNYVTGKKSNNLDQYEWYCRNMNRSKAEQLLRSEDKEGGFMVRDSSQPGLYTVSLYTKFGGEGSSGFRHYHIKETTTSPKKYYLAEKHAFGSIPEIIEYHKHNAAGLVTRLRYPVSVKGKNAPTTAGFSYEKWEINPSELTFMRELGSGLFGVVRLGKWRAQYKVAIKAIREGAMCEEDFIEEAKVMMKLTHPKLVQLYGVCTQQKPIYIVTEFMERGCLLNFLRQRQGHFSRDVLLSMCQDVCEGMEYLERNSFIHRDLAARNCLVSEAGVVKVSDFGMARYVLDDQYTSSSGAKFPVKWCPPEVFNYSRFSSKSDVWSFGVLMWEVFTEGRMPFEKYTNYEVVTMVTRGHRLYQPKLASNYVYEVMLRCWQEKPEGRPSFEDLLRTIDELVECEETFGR

[33] = target: T30, CDK19/cyclin C (Homo sapiens, UniProt Q9BWU1); experiment: HotSpot kinase assay; format: biochemical; settings: read-out: % Enzyme Activity (relative to DMSO controls)
T30 construct: purchased Reaction Biology Corporation

[34] = target: T31, RIPK4 (Homo sapiens, UniProt P57078); experiment: HotSpot kinase assay; format: biochemical; settings: read-out: % Enzyme Activity (relative to DMSO controls)
T31 construct: purchased Reaction Biology Corporation
T31 sequence (P57078 whole entry): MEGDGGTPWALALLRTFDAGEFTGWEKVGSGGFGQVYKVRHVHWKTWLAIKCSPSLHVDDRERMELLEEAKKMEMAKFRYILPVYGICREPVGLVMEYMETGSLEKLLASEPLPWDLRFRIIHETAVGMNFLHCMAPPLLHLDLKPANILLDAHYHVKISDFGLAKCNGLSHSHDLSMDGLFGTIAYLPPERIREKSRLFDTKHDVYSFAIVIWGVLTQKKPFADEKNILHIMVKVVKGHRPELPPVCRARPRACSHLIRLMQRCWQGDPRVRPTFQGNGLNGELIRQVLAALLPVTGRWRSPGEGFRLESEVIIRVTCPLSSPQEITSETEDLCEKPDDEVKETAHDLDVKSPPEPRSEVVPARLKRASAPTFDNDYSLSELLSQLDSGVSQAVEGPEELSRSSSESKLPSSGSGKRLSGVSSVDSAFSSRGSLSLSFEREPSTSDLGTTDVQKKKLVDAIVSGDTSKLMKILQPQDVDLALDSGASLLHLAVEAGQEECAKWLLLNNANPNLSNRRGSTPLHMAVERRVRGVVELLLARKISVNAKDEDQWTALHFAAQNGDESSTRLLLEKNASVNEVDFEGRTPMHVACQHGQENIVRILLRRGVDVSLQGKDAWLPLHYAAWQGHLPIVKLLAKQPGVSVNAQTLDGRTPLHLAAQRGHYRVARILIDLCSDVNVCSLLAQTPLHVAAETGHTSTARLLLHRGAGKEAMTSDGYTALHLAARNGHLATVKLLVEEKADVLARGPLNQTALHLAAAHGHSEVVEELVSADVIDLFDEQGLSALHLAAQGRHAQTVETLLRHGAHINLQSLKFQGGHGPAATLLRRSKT

CO[C@@H]1[C@H](N(C)C(=O)CCC(=O)NCc2cn(CCCS(=O)(=O)O)nn2)C[C@H]2O[C@]1(C)n1c3ccccc3c3c4c(c5c6ccccc6n2c5c31)C(=O)NC4 [CIMSS]
remaining activity at 10 µM [1]: 0.98% | remaining activity at 10 µM [2]: 6.48% | induction of apoptosis [3]: did not induce apoptosis | remaining activity at 10 µM [4]: 0.87% | remaining activity at 10 µM [5]: 1.86% | remaining activity at 10 µM [6]: 4.06% | Papp at 1 h, 5 μM [7]: 0.1 ×10⁻⁶ cm/s | remaining activity at 10 µM [8]: 95.9% | remaining activity at 10 µM [9]: 87.3% | remaining activity at 10 µM [10]: 96.4% | remaining activity at 10 µM [11]: 81.6% | remaining activity at 10 µM [12]: 36.3% | remaining activity at 10 µM [13]: 16.6% | remaining activity at 10 µM [14]: 1.18% | remaining activity at 10 µM [15]: 71.9% | remaining activity at 10 µM [16]: 56.8% | VSV-S infection [17]: inhibited | remaining activity at 10 µM [18]: 75.8% | remaining activity at 10 µM [19]: 7.35% | remaining activity at 10 µM [20]: 1.33% | remaining activity at 10 µM [21]: 50.4% | remaining activity at 10 µM [22]: 41.3% | remaining activity at 10 µM [23]: 1% | remaining activity at 10 µM [24]: 24.6% | remaining activity at 10 µM [25]: 44.6% | remaining activity at 10 µM [26]: 8.97% | remaining activity at 10 µM [27]: 4.81% | remaining activity at 10 µM [28]: 6.24% | remaining activity at 10 µM [29]: 6.32% | remaining activity at 10 µM [30]: 2.19% | remaining activity at 10 µM [31]: 13.9% | remaining activity at 10 µM [32]: 19.9% | remaining activity at 10 µM [33]: 37.9% | remaining activity at 10 µM [34]: 99.1%
